{"source": "patent US12569508B2", "about": "“Antimicrobial compositions and methods of use” (priority 2020, dated 2026)", "key": {"[1]": {"tested_on": "P. aeruginosa (PAO1)", "experiment": "C. elegans PAO1 infection model", "format": "in vivo, Caenorhabditis elegans", "experimental": "For the infection study, an overnight culture of P. aeruginosa (PAO1) was diluted to an OD of 0.1 and 200 μL was seeded onto NGM (50 mM NaCl and 0.35% peptone) agar plates for 12 h at 37° C. After 12 h, the collected L4 stage nematodes were incubated on PAO1 seeded agar plates and allowed to feed on the bacteria for 6 h at 25° C. (Uccelletti D et al., 2010, Antimicrobial Agents and Chemotherapy 54(9), 3853-3860). Thereafter, the nematodes were removed from the agar and washed multiple times to remove PAO1 from the outside and the nematodes were split into groups of 20 in OGM medium. Besides the non-treated control, the infected nematodes were treated with various concentrations of tobramycin as an unformulated solution or loaded in MO-LCNPs.\nIn both the healthy and infected nematodes study, nematodes were assessed as live or dead under a bright field microscopy through either being curled and moving (live) or stiff and non-moving (dead) at 4 h, 24 h and 48 h post treatment. The percentage of live nematodes to the total number of nematodes in the samples was compared to healthy, non-treated controls to compute the % survival.\nFollowing 24 h and 48 h, samples of the nematodes were taken and washed with M9 buffer containing 1 mM sodium azide and then 0.01 M PBS before being counted. The nematodes were then mechanically disrupted via vortex mixing in tubes with 200 mg of 1.0 mm silicon carbide beads (BioSpec Products, Bartleville, OK) for 10 mins (Richter K et al. 2017, Frontiers in Cellular and Infection Microbiology, 7: Article 280). The disrupted nematodes and bacterial suspensions were serial diluted and spot plated on Pseudomonas isolation agar for colony forming units (CFU) counting to determine the CFU per nematode."}, "[2]": {"tested_on": "P. aeruginosa Xen41", "experiment": "Chronic full-thickness wound infection model: bacterial load", "format": "in vivo, Balb/c mice", "experimental": "Immediately after wounding, group 1 was inoculated with 10^7 CFU of bioluminescent P. aeruginosa strain (Xen41, PerkinElmer, Waltham, MA, USA) in 10 μL of 0.9% saline. All other mice were covered with an adhesive dressing (Opsite Flexigrid, Smith & Nephew, London, UK). All mice were given soaked food and free access to water for the study. Postoperative analgesia (0.05 mg/kg buprenorphine) was provided 10 h and 24 h post-surgery via subcutaneous administration. After inoculation, mice were imaged using IVIS Spectrum Live Animal Imaging System (PerkinElmer, Waltham, MA, USA) and then daily until sacrifice to quantity radiance (photons/s) of the bioluminescent bacteria in the wound and correlate to the infection load, as previously described (Abbott C A et al., 2013, Contributors, in Handbook of Proteolytic Enzymes, N. D. Rawlings and G. Salvesen, Editors. 2013, Academic Press. p. xxxv-xlviii). Using built-in Living Image R software, regions of interest (ROI) were selected surrounding the wound to quantify the total photon emission following established protocols (Haidari, H., et al., 2021, Acta Biomaterialia, 128: 420-434; Kopecki, Z., et al., 2009, Journal of Investigative Dermatology, 129(8): 2031-2045).\nAfter the pilot, it was determined that a 6 mm wound+10^6 CFU P. aeruginosa infection was the appropriate model to proceed with. […]"}, "[3]": {"tested_on": "6 mm full-thickness wound infected with P. aeruginosa", "experiment": "Chronic full-thickness wound infection model: macroscopic and microscopic wound healing", "format": "in vivo, Balb/c mice", "experimental": "Following the same procedure as above, male and female mice were wounded with a 6 mm circular full-thickness wound under anaesthesia and pain relief. […] Treatments were repeated every 24 h for three days and monitored for the bacterial burden and digital photographs. On day six, mice were sacrificed as described above. Digital photographs of the wounds that were taken daily (day zero to six) were used for the macroscopic assessment of healing using ImageJ software. The images were calibrated to a ruler to measure the wounds length, gape and surface area, as previously described (Abbott C A et al., 2013, supra). The microscopic analysis was completed with histology assessments. Following overnight fixation in 4% (v/v) formaldehyde, collected wound halves were routinely processed into paraffin, and 4 μm thick sections were cut using a semi-automated rotary microtome (HistoCore MultiCut, Leica Biosystems, Melbourne, Australia). The sections were stained for haematoxylin and eosin using established protocols (Kopecki, Z., et al., 2009, supra). Following, all sections were imaged via […] slide scanner, Hamamatsu Photonics, Japan) and analysed using NDP.view2 Viewing software (Hamamatsu Photonics, Japan) to microscopically assess the healing via measurement of wound length, gape and percentage of wound re-epithelisation following previously used protocols ([…]., et al., 2021, supra)."}, "[4]": {"settings": "aerosolised, CF patients; cited from earlier work"}}}
{"smiles": "NC[C@H]1O[C@H](O[C@H]2[C@H](O)[C@@H](O[C@H]3O[C@H](CO)[C@@H](O)[C@H](N)[C@H]3O)[C@H](N)C[C@@H]2N)[C@H](N)C[C@@H]1O", "note": "[unformulated TOB, tobramycin]", "values": [{"measurement": "survival of infected nematodes", "setting": "[1]; 24 h, 3 μg/mL", "value": 13, "unit": "%"}, {"measurement": "survival of infected nematodes", "setting": "[1]; 24 h, 6 μg/mL", "value": 65, "unit": "%"}, {"measurement": "survival of infected nematodes", "setting": "[1]; 24 h, 15 μg/mL", "value": 83, "unit": "%"}, {"measurement": "bacteria killed compared to control", "setting": "[1]; 24 h, 15 μg/mL and 60 μg/mL", "value": 1, "unit": "log"}, {"measurement": "survival of infected nematodes", "setting": "[1]; 24 h, 60 μg/mL", "value": 87, "unit": "%"}, {"measurement": "PAO1 infection level", "setting": "[1]; 48 h", "value": "~4", "unit": "log"}, {"measurement": "survival of infected nematodes", "setting": "[1]; 48 h, 3 μg/mL", "value": 7, "unit": "%"}, {"measurement": "PAO1 surviving", "setting": "[1]; 48 h, 60 μg/mL", "value": 2, "unit": "log"}, {"measurement": "average survival of infected nematodes", "setting": "[1]; 48 h, 6-60 μg/mL", "value": 65, "unit": "%"}, {"measurement": "change in infection level compared to saline", "setting": "[2]; after each once-daily dose", "value": "no statistical change in the infection level"}, {"measurement": "P. aeruginosa remaining in excised wounds", "setting": "[2]; day six, after three doses of 15 μg topical", "value": "5×10^6 CFU"}, {"measurement": "macroscopic dermal gape", "setting": "[3]; day five", "value": "88±11", "unit": "%"}, {"measurement": "macroscopic wound area (of the original wound)", "setting": "[3]; day five, after two doses", "value": "66±13", "unit": "%"}, {"measurement": "dermal gape (histology)", "setting": "[3]; day six", "value": "5.2±0.8", "unit": "mm"}, {"measurement": "macroscopic dermal gape", "setting": "[3]; day six", "value": "77±10", "unit": "%"}, {"measurement": "macroscopic wound area (of the original wound)", "setting": "[3]; day six, after three doses", "value": "75±18", "unit": "%"}, {"measurement": "wound length (histology)", "setting": "[3]; day six, after three doses", "value": "7.6±0.9", "unit": "mm"}, {"measurement": "wound reepithelization", "setting": "[3]; day six, histology", "value": "41±8", "unit": "%"}, {"measurement": "bioavailability", "setting": "[4]", "value": 9.13, "unit": "%"}]}
